Source: patent US8420308B2, “Methods and kits for diagnosis of schizophrenia” (Technion R&D Foundation Ltd., priority 2000, dated 2013)
Where two headings read alike, the source gives them in different places.

How the values were obtained:
complex II [1] = target: T1, complex II (Homo sapiens, UniProt O14521+P21912+P31040+Q99643); assay: Complex II driven respiration in SH-SY5Y cells; assay type: cell-based; design: endogenous in cells; host or cells: SH-SY5Y; conditions: for inhibition at 50 µM: 5 × 10^−5 M; for inhibition at 50 µM / inhibition at 100 µM: means ± SD of 4-6 detections; for inhibition at 100 µM: 10^−4 M
Source text: (§1) The effect of antipsychotic drugs on respiration in SH-SY5Y cells was studied.

complex I [2] = target: T2, complex I (Homo sapiens, UniProt P19404+P28331+P49821); assay: Complex I driven respiration in SH-SY5Y cells; assay type: cell-based; design: endogenous in cells; host or cells: SH-SY5Y; conditions: for % Inhibition - complex I: 5 × 1O^−5 M; for % Inhibition - complex I / inhibition at 100 µM: means ± SD of 4-6 detections; for inhibition at 100 µM: 10^−4 M
Source text: as §1

complex II [3] = target: T1, complex II; conditions: succinate in the presence of rotenone and ATP
Protocol: (§2) Respiration rate was determined polarographically using a thermostatically controlled (37° C.) Clark oxygen electrode after 10 minutes of incubation. Respiration rates for each enzyme of the respiratory chain were assessed after the permeabilization of cellular membrane, with 0.001% digitonin followed by the addition of the following substrates and inhibitors: […] plus malate for complex I induced respiration; succinate, in the presence of rotenone and ATP for complex II induced respiration, and glycerol-3-phosphate, in the presence of rotenone. […] Results are means±SD of 3 experiments.

complex I [4] = target: T2, complex I; conditions: permeabilized cells, 37° C., 10 minutes of incubation; means±SD of 3 experiments
Protocol: as §2

complex III = complex III (Homo sapiens, UniProt P00156+P08574+P47985); conditions: glycerol-3-phosphate in the presence of rotenone, ATP and malonate
Protocol: as §2

[5] = tested on: EBV transformed lymphocytes
Protocol: Lymphocytes were isolated on Ficol and were centrifugated at 270 g for 10 minutes, the cell pellet was infected with 1 ml EBV at 37° C. for 1 h. The sample was then centrifuged at 270 g for 10 minutes to remove the EBV. The infected lymphocytes were-suspended in 5 ml of RPMI 1640 with 20% (v/v) FBS and 1% phytohemagglutinin (PHA) and incubated in a culture flask with culture medium replaced twice a week. Immortalized lymphocytes were then cryopreserved until use in liquid nitrogen.
Respiration was measured polarographically using a thermostatically controlled (37° C.) Clark oxygen electrode after 10 minutes of incubation. The respiration rates were assessed after the permeabilization of cellular membrane with 0.001% digitonin and the addition of glutamate+malate

[6] = target: T3, mitochondrial complex I (NADH ferricyanide reductase) (Homo sapiens, UniProt P19404+P28331+P49821); assay: Dopamine inhibition of NADH-ferricyanide reductase (complex I) activity in platelet mitochondria; assay type: biochemical; conditions: platelet mitochondrial preparation
T3 construct: an enriched mitochondrial fraction was isolated on percoll as described previously; from tissue; host or cells: mitochondria-enriched fraction of blood platelets, disrupted by freeze-thaw or digitonin

[7] = target: T4, NADH CoQ reductase (complex I) (Homo sapiens, UniProt P19404+P28331+P49821); assay: NADH-CoQ reductase activity in platelet mitochondria; assay type: biochemical; conditions: 10 μM rotenone; read-out: Residual activity of NADH CoQ reductase in the presence of rotenone
T4 construct: an enriched mitochondrial fraction was isolated on percoll as described previously; from tissue; host or cells: mitochondria-enriched fraction of blood platelets, disrupted by freeze-thaw or digitonin
Protocol: Blood (40-80 ml) was collected from the cubital vein without tourniquet between 8:00 and 10:00 a.m., mixed 9:1 with 3.8% (w/v) tri-sodium citrate, and platelet-rich plasma (PRP) separated at room temperature by centrifugation at 200×g for 20 min. Platelets were isolated and washed with Tyrode's buffer pH 7.4 containing 1 mM EDTA as described previously (Krige et al., 1992). The platelet pellet was gently resuspended in ice cold 10 mM Tris buffer pH 7.4 containing 250 mM sucrose and 1 mM EDTA and disrupted by a Dounce A homogenizer (20-30 strokes). The breakdown of the platelets was verified by light microscopy. The homogenate was centrifuged at 1000×g at 4° C. for 20 min to remove unbroken cells. The supernatant, containing the cytoplasmic extract was centrifuged at 12,000×g at 4° C. For 15 min and an enriched mitochondrial fraction was isolated on percoll as described previously (Ben-Shachar et al., 1995; Gavin et al., 1990; McComark and Denton, 1989). […] The final preparation was immediately stored at −70° C. until use.
Mitochondrial respiratory chain enzymes activity was assayed blindly and in triplicate after two cycles of freezing and thawing in a final volume of 1 ml at 25° C. by standard techniques. […]
Results from both assays for each sample are expressed as the difference between reductases activities in the absence and the presence of the relevant inhibitors.

T1 sequence (P31040 43-664): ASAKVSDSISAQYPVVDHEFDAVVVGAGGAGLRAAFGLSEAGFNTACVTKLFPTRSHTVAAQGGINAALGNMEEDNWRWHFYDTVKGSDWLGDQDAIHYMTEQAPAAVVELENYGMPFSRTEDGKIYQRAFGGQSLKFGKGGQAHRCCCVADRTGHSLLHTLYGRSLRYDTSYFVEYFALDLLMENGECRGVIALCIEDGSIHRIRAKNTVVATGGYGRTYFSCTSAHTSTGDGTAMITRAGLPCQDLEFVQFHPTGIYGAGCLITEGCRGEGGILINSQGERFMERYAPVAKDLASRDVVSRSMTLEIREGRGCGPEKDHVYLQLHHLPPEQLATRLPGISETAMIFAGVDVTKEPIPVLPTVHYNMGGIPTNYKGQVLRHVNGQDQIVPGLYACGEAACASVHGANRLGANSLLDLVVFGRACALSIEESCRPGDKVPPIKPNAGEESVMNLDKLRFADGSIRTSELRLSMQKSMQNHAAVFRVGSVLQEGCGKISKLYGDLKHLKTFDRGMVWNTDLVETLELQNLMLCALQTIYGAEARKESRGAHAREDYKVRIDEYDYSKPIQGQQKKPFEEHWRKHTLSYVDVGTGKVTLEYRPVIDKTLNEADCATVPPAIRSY
T1 sequence (P21912 29-280): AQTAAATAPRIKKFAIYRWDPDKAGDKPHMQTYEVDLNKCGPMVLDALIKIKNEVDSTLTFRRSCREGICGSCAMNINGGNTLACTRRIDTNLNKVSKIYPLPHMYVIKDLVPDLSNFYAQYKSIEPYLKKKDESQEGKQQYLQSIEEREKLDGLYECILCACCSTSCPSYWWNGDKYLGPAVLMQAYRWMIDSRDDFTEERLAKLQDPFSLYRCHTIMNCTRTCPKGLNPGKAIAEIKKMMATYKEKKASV
T1 sequence (Q99643 30-169): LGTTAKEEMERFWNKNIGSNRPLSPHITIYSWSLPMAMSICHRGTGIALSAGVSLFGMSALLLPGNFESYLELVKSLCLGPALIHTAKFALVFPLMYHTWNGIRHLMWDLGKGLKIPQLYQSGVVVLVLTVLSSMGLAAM
T1 sequence (O14521 57-159): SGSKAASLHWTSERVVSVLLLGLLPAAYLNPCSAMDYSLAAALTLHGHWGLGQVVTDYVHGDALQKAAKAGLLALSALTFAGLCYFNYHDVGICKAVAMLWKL
T2 sequence (P49821 21-464): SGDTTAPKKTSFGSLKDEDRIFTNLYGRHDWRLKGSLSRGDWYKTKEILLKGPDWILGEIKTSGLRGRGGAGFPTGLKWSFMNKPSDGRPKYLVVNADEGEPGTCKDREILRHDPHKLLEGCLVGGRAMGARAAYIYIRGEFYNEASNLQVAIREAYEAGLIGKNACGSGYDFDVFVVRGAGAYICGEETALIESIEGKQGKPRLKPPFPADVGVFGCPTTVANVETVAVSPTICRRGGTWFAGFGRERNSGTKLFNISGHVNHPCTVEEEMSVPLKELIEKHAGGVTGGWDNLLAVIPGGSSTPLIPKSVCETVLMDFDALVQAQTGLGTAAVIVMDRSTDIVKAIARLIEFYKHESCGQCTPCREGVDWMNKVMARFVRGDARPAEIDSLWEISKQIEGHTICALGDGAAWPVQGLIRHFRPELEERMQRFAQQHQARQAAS
T2 sequence (P19404 33-249): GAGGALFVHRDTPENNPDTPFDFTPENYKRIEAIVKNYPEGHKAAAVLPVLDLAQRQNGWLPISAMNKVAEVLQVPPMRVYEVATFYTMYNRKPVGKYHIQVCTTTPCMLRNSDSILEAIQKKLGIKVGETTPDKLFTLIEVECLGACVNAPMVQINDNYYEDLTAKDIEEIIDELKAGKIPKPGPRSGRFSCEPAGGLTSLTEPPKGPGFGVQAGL
T2 sequence (P28331 24-727): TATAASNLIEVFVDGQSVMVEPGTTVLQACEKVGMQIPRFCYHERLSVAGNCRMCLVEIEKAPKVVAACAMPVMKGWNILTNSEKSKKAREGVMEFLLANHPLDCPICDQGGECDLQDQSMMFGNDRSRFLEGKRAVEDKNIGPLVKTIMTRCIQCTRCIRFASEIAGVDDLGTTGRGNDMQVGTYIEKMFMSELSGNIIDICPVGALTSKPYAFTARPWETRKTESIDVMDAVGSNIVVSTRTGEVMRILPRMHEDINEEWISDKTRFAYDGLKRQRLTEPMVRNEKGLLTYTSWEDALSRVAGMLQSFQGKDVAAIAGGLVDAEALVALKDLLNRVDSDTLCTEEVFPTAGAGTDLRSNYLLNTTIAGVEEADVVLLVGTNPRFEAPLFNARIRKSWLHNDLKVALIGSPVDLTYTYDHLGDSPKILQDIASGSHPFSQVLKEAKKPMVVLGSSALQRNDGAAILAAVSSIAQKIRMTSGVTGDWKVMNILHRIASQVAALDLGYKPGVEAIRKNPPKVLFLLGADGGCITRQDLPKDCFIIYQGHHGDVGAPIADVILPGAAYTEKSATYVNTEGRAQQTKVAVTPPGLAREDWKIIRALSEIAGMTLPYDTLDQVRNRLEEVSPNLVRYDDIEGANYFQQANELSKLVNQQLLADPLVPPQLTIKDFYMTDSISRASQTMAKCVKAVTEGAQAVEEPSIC
T3 sequence (P49821 21-464): as the sequence (P49821 21-464) above
T3 sequence (P19404 33-249): as the sequence (P19404 33-249) above
T3 sequence (P28331 24-727): as the sequence (P28331 24-727) above
T4 sequence (P28331 24-727): as above
T4 sequence (P49821 21-464): as the sequence (P49821 21-464) above
T4 sequence (P19404 33-249): as the sequence (P19404 33-249) above

| Structure (SMILES) | inhibition at 50 µM (complex II [1]) | inhibition at 100 µM (complex II [1]) | % Inhibition - complex I (complex I [2]) | inhibition at 100 µM (complex I [2]) | further results |
| --- | --- | --- | --- | --- | --- |
| CN(C)CCCN1c2ccccc2Sc2ccc(Cl)cc21 [Chlorpromazine] | 6.6 ± 3.5% | 14.9 ± 2.1% | 20.9 ± 18.1 % | 43.8 ± 17.3% | Effect on respiration through complex II (in words) (complex II [1]): no effect; Effect on complex I driven mitochondrial respiration (in words) (complex I [2]): specifically inhibit complex I driven mitochondrial respiration |
| CN1CCN(C2=Nc3cc(Cl)ccc3Nc3ccccc32)CC1 [Clozapine] | 10.9 ± 1.6% | 2.6 ± 2.4% | 31.2 ± 5.6 % | 39.9 ± 20.8% | – |
| NCCc1ccc(O)c(O)c1 [Dopamine] | – | – | – | – | Inhibition of respiration through complex II (complex II [3]): not through complex II; Inhibition of respiration through complex I (complex I [4]): 33.3±0.07%; Inhibition of respiration through complex III (complex III): not through complex II and III; Inhibition by DA in schizophrenic patients relative to control subjects ([5]; EBV transformed lymphocytes): higher by two fold; Inhibition of respiration by DA ([5]; lymphoblasts of control subjects (n=7)): 11.4±7.2%; Inhibition of respiration by DA ([5]; lymphoblasts of schizophrenic patients (n=7)): 26.8±8.6% |
| O=C(CCCN1CCC(O)(c2ccc(Cl)cc2)CC1)c1ccc(F)cc1 [Haloperidol] | 0.7 ± 0.7% | 2.9 ± 1.8% | 27.2 ± 4.7 % | 47.6 ± 10% | Effect on respiration through complex II (in words) (complex II [1]): no effect; Effect on complex I driven mitochondrial respiration (in words) (complex I [2]): specifically inhibit complex I driven mitochondrial respiration |
| C=C(C)[C@H]1Cc2c(ccc3c2O[C@@H]2COc4cc(OC)c(OC)cc4[C@@H]2C3=O)O1 [rotenone] | – | – | – | – | Effect on NADH ferricyanide reductase activity [6]: no effect; remaining activity at 10 µM [7]: 5 to 15% |

Continued, in another order:

| inhibition at 50 µM (complex II [1]) | inhibition at 100 µM (complex II [1]) | Structure (SMILES) | % Inhibition - complex I (complex I [2]) | inhibition at 100 µM (complex I [2]) | further results |
| --- | --- | --- | --- | --- | --- |
| 11 ± 1.2% | 22.1 ± 18% | CN(C)CCCN1c2ccccc2CCc2ccc(Cl)cc21 [Anafranil] | 13.0 ± 11.0% | 32.1 ± 8.8% | – |
| 15 ± 9.2% | 25.3 ± 0.2% | CNCCC(Oc1ccc(C(F)(F)F)cc1)c1ccccc1 (centres unmarked) [Fluoxetine] | 15.7 ± 25.5% | 29.2 ± 22.7% | – |
